Measurements as given in patent US20170165363A1, “CANCER CELL MIGRATION INHIBITORS AND THEIR USE IN THERAPEUTIC TREATMENTS” (THE JOHNS HOPKINS UNIVERSITY, priority 2015, published 2017).

Test system: human fibrosarcoma HT1080 cells
Test: Velocity of matrix-embedded cells in 3D collagen I matrix (live-cell tracking)
Type: cell-based
Conditions: for cell velocity / cell migration on addition of recombinant cytokine: HT1080 seeded at low density (10 cells/mm^3), combination at the precise concentrations found at 50 cells/mm^3, ratio 5:2; for cell velocity: human fibrosarcoma cells embedded in a 3D matrix at LD (ρ=10) and HD (ρ=50), compared to cells exposed to fresh medium (0); for cell-density-dependent migration: matrix-embedded cells at low and high cell densities
Procedure: HT1080 cells were embedded in 2mg/ml type I collagen gel as described previously by Fraley et al^20. Briefly, cell suspensions containing 5000 to 75,000 cells in 1:1 (v/v) ratio of cell culture media and reconstitution buffer were mixed with appropriate volume of soluble rat-tail collagen I (Corning Inc.) to obtain a final collagen I concentration of 2 mg/ml. A calculated amount of 1M NaOH was added quickly and the final solution was mixed well to bring the pH to ˜7. The cell suspensions was added to a 24-well coverslip-bottom cell-culture dish and immediately transferred to an incubator maintained at 36° C. to allow polymerization. Fresh medium was added 1 h before imaging. MDA MB 231 and U-87 cells were embedded in 1 mg/ml type I collagen matrix
Phase-contrast images of matrix-embedded cells were recorded 2 min apart for 16.5 h using a Cascade 1K CCD camera (Roper Scientific) mounted on a Nikon TE2000 microscope with a 10× objective lens. Single cells were tracked using Metamorph imaging software. A custom MATLAB program calculated the velocity for each cell using the x- and y-coordinates obtained from tracking data using the following equation: […]
Recombinant IL-6 and IL-8 (R&D systems) reconstituted in DPBS (Life technologies) were added to matrix embedded cells with a cell density of 10 cells/mm^3 and imaged as described above (See velocity and protrusion topology of matrix embedded cells). Matrix embedded cells with cell densities of 10 cells/mm^3 and 50 cells/mm^3 were exposed to specific IL-6 and IL-8 functional antibodies (Proteintech) at a concentration of 0.5 μg/mL. Matrix embedded cells with cell densities of 10 cells/mm^3 and 50 cells/mm^3 were exposed to Tocilizumab (Roche) and Reparixin (Dompe pharmaceuticals) STAT3 and WASF3 activity
Matrix embedded with cell densities of 10 cells/mm^3 and 50 cells/mm^3 were exposed to JAK2 inhibitor, AG-490 (Santa Cruz Biotechnology), STAT3 inhibitor, S31-201, (Santa Cruz Biotechnology) and ARP 2/3 complex inhibitor, CK 666, (Sigma-Aldrich) for 1 h before cells were imaged as described above. (See velocity and protrusion topology of matrix embedded cells)

recombinant IL-6: human recombinant IL-6 (R&D systems)
cell velocity / cell migration on addition of recombinant cytokine: do not increase cell velocity | cell velocity / cell migration on addition of recombinant cytokine (listed as IL-6): no effect on cell migration

CC(C)Cc1ccc([C@@H](C)C(=O)NS(C)(=O)=O)cc1 [Reparixin, (2R)-2-[4-(2-methylpropyl)phenyl]-N-methylsulfonylpropanamide]
cell velocity: decreased cell velocity

recombinant IL-8: human recombinant IL-8 (R&D systems)
cell velocity / cell migration on addition of recombinant cytokine: do not increase cell velocity | cell velocity / cell migration on addition of recombinant cytokine (listed as IL-8): no effect on cell migration

Tocilizumab: a recombinant humanized, anti-human IL-6 receptor monoclonal antibody currently used in the treatment of Rheumatoid Arthritis
cell velocity: decreased cell velocity

N#C/C(=C/c1ccc(O)c(O)c1)C(=O)NCc1ccccc1 [AG-490]
cell velocity: Decreased cell velocity | cell-density-dependent migration: prevented cell-density-dependent migration

Cc1[nH]c2ccccc2c1CCNC(=O)c1ccccc1F [CK666]
cell velocity: Decreased cell velocity | cell-density-dependent migration: prevented cell-density-dependent migration

Cc1ccc(S(=O)(=O)OCC(=O)Nc2ccc(C(=O)O)c(O)c2)cc1 [S3I-201]
cell velocity: Decreased cell velocity | cell-density-dependent migration: prevented cell-density-dependent migration
